Test results from patent publication US12552753B2, “Methods and compositions for targeting Tregs using CCR8 inhibitors” (Nanjing Immunophage Biomedical Co., Ltd., priority 2020, dated 2026).
Structures can show the parent of a compound that is named as a salt.

Target: CCR8 (Homo sapiens, UniProt P51685)
Assay: Tango assay (Tango-CCR8-Gal4-CHO-K1 cells, CCL1-stimulated, ONE-Glo luminescence)
Conditions: Tango Assay IC50, Inhibition of CCR8 Tango cell in vitro

CCR8, sequence (P51685 whole entry, the tested form may be a part): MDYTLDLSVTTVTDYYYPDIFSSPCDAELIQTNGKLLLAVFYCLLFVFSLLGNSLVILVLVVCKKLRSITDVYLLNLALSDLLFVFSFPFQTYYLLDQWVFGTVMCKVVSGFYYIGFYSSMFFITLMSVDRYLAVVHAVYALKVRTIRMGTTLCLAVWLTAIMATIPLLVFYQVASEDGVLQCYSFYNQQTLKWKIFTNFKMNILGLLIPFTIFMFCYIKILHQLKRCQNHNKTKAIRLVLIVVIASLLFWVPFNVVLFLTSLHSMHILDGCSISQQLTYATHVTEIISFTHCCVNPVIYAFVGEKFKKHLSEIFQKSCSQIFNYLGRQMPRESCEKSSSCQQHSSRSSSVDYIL

Row | IC50 | Compound
1 | > 10000 nM | Cc1ccccc1C(=O)Nc1ccc(S(=O)(=O)NC(C)C2CCCN(C(=O)CNC(=O)OC(C)(C)C)C2)c2ccccc12 (centres unmarked) [Compound 155D, tert-butyl (2-(3-(1-(4-(2-methylbenzamido)naph-thalene-1-sulfonamido)ethyl)piper-idin-1-yl)-2-oxoethyl)carbamate]
2 | > 10000 nM | Cc1ccccc1C(=O)Nc1ccc(S(=O)(=O)NC(C)C2CCCN(C(=O)CN(C)C)C2)c2ccccc12 (centres unmarked) [Compound 159, N-(4-(N-(1-(1-(2-(dimethylamino)acetyl)piperidin-3-yl)ethyl)sulfamoyl)naph-thalen-1-yl)-2-methylbenzamide]
3 | > 10000 nM | Cc1cc(S(=O)(=O)N[C@H](C)C2CCN(C(=O)OC(C)(C)C)CC2)ccc1NC(=O)c1ccccc1C [Compound 160, (R)-tert-butyl 4-(1-(3-methyl-4-(2-methylbenzamido)phen-ylsulfonamido)ethyl)piper-idine-1-carboxylate]
4 | 42 nM | Cc1cc(S(=O)(=O)N[C@H](C)C2CCNCC2)ccc1NC(=O)c1ccccc1C [Compound 161A, (R)-2-methyl-N-(2-methyl-4-(N-(1-(piperidin-4-yl)ethyl)sulfamoyl)phen-yl)benzamide hydrochloride]
5 | 5 nM | Cc1cc(S(=O)(=O)NC(C)C2CC3CCC2CC3)ccc1NC(=O)c1ccccc1C (centres unmarked) [Compound 162, N-(4-(N-(1-(bicyclo[2.2.2]octan-2-yl)ethyl)sulfamoyl)-2-methylphenyl)-2-methylbenzamide]
6 | 86 nM | Cc1ccccc1C(=O)Nc1ccc(S(=O)(=O)NC(C)C2CC3CCC2CC3)c(C)c1 (centres unmarked) [Compound 163, N-(4-(N-(1-(bicyclo[2.2.2]octan-2-yl)ethyl)sulfamoyl)-3-methylphenyl)-2-methylbenzamide]
7 | > 10000 nM | Cc1ccccc1C(=O)Nc1ccc(S(=O)(=O)N[C@H](C)C2CCN(C(=O)OC(C)(C)C)CC2)cc1Cl [Compound 164, (R)-tert-butyl 4-(1-(3-chloro-4-(2-methylbenzamido)phen-ylsulfonamido)ethyl)piper-idine-1-carboxylate]
8 | 99 nM | Cc1cc(S(=O)(=O)N[C@H](C)C2CCNCC2)ccc1NC(=O)c1ccccc1 [Compound 166A, (R)-N-(2-methyl-4-(N-(1-(piperidin-4-yl)ethyl)sulfamoyl)phen-yl)benzamide hydrochloride]
9 | 46 nM | Cc1cc(S(=O)(=O)NC(C)C2CCNCC2)ccc1NC(=O)c1ccccc1C (centres unmarked) [Compound 167A, 2-methyl-N-(2-methyl-4-(N-(1-(piperidin-4-yl)ethyl)sulfamoyl)phen-yl)benzamide hydrochloride]
10 | 1300 nM | Cc1cc(S(=O)(=O)N[C@H](C)C2CCN(C(=O)OC(C)(C)C)CC2)c(Cl)cc1NC(=O)c1ccccc1C [Compound 168, (R)-tert-butyl 4-(1-(2-chloro-5-methyl-4-(2-methylbenzamido)phen-ylsulfonamido)ethyl)pi-peridine-1-carboxylate]
11 | 12 nM | Cc1cc(S(=O)(=O)N[C@H](C)C2CCNCC2)c(Cl)cc1NC(=O)c1ccccc1C [Compound 169A, (R)-N-(5-chloro-2-methyl-4-(N-(1-(piperidin-4-yl)ethyl)sulfamoyl)phen-yl)-2-methylbenzamide hydrochloride]
12 | 3.7 nM | Cc1cc(S(=O)(=O)NC(C)C2CC3CCC2CC3)c(C)cc1NC(=O)c1ccccc1C (centres unmarked) [Compound 170, N-(4-(N-(1-(bicyclo[2.2.2]octan-2-yl)ethyl)sulfamoyl)-2,5-dimethylphenyl)-2-methylbenzamide]
13 | 19 nM | Cc1cc(S(=O)(=O)N[C@H](C)C2CCNCC2)c(C)cc1NC(=O)c1ccccc1C [Compound 171A, (R)-N-(2,5-dimethyl-4-(N-(1-(piperidin-4-yl)ethyl)sulfamoyl)phen-yl)-2-methylbenzamide hydrochloride]
14 | > 10000 nM | CC(=O)Nc1cc(C)c(S(=O)(=O)N[C@H](C)C2CCNCC2)cc1C [Compound 172A, (R)-N-(2,5-dimethyl-4-(N-(1-(piperidin-4-yl)ethyl)sulfamoyl)phen-yl)acetamide hydrochloride]
15 | 22 nM | COc1cc(S(=O)(=O)NC(C)C2CC3CCC2CC3)c(C)cc1NC(=O)c1ccccc1C (centres unmarked) [Compound 173, N-(4-(N-(1-(bicyclo[2.2.2]octan-2-yl)ethyl)sulfamoyl)-2-methoxy-5-methylphenyl)-2-methylbenzamide]
16 | 914 nM | Cc1cc(S(=O)(=O)N[C@H](C)C2CCN(C(=O)OC(C)(C)C)CC2)c(F)cc1NC(=O)c1ccccc1C [Compound 174, (R)-tert-butyl 4-(1-(2-fluoro-5-methyl-4-(2-methylbenzamido)phen-ylsulfonamido)ethyl)pi-peridine-1-carboxylate]
17 | 26 nM | Cc1cc(S(=O)(=O)N[C@H](C)C2CCNCC2)c(F)cc1NC(=O)c1ccccc1C [Compound 175, (R)-N-(5-fluoro-2-methyl-4-(N-(1-(piperidin-4-yl)ethyl)sulfamoyl)phen-yl)-2-methylbenzamide]

Row | IC50 | Compound
18 | 711 nM | Cc1ccccc1C(=O)Nc1ccc(S(=O)(=O)N[C@H](C)C2CCN(C(=O)OC(C)(C)C)CC2)c(F)c1C [Compound 176, (R)-tert-butyl 4-(1-(2-fluoro-3-methyl-4-(2-methylbenzamido)phen-ylsulfonamido)ethyl)pi-perridine-1-carboxylate]
19 | 46 nM | Cc1ccccc1C(=O)Nc1ccc(S(=O)(=O)N[C@H](C)C2CCNCC2)c(F)c1C [Compound 177A, (R)-N-(3-fluoro-2-methyl-4-(N-(1-(piperidin-4-yl)ethyl)sulfamoyl)phen-yl)-2-methylbenzamide, hydrochloride]
20 | 378 nM | Cc1ccccc1C(=O)Nc1ccc(S(=O)(=O)N[C@H](C)C2CCN(C(=O)OC(C)(C)C)CC2)c(Cl)c1C [Compound 178, (R)-tert-butyl 4-(1-(2-chloro-3-methyl-4-(2-methylbenzmido)phen-ylsulfonamido)ethyl)pi-perridine-1-carboxylate]
21 | 158 nM | Cc1ccccc1C(=O)Nc1ccc(S(=O)(=O)N[C@H](C)C2CCNCC2)c(Cl)c1C [Compound 179A, (R)-N-(3-chloro-2-methyl-4-(N-(1-(piperidin-4-yl)eth-yl)sulfamoyl)phen-yl)-2-methylbenzamide, hydrochloride]
22 | 2 nM | Cc1ccccc1C(=O)Nc1c(C)cc(S(=O)(=O)N[C@H](C)C2CCNCC2)cc1Cl [Compound 180A, (R)-N-(2-chloro-6-methyl-4-(N-(1-(piperidin-4-yl)eth-yl)sulfamoyl)phen-yl)-2-methylbenzamide hydrochloride]
23 | > 10000 nM | Cc1cc(S(=O)(=O)N[C@H](C)C2CCNCC2)cc(C)c1NC(=O)c1ccccc1 [Compound 181, (R)-N-(2,6-dimethyl-4-(N-(1-(piperidin-4-yl)ethyl)sulfa-moyl)phenyl)benza-mide hydrochloride]
24 | 61 nM | Cc1ccccc1C(=O)Nc1ccc(S(=O)(=O)NC(C)C2CC3CCC2CC3)c(C)c1C (centres unmarked) [Compound 182, N-(4-(N-(1-(bicyclo[2.2.2]octan-2-yl)ethyl)sulfamoyl)-2,3-dimethylphenyl)-2-methylbenzamide]
25 | > 10000 nM | COc1cc(S(=O)(=O)NC(C)C2CC3CCC2CC3)c(OC)cc1NC(=O)c1ccccc1C (centres unmarked) [Compound 183, N-(4-(N-(1-(bicyclo[2.2.2]octan-2-yl)ethyl)sulfamoyl)-2,5-dimethoxyphenyl)-2-methylbenzamide]
26 | 16 nM | COc1cc(NC(=O)c2ccccc2C)c(C)cc1S(=O)(=O)NC(C)C1CC2CCC1CC2 (centres unmarked) [Compound 184, N-(4-(N-(1-(bicyclo[2.2.2]octan-2-yl)ethyl)sulfamoyl)-5-methoxy-2-methylphenyl)-2-methylbenzamide]
27 | 673 nM | Cc1ccccc1C(=O)Nc1ccc(S(=O)(=O)N[C@H](C)C2CCN(C(=O)OC(C)(C)C)CC2)cc1C(F)(F)F [Compound 185, (R)-tert-butyl 4-(1-(4-(2-methylbenzamido)-3-(trifluoromethyl)phenyl-sulfonamido)ethyl)piper-idine-1-carboxylate]
28 | 182 nM | Cc1ccccc1C(=O)Nc1ccc(S(=O)(=O)N[C@H](C)C2CCNCC2)cc1C(F)(F)F [Compound 186A, (R)-2-methyl-N-(4-(N-(1-(piperidin-4-yl)ethyl)sulfamoyl)-2-(trifluoromethyl)phenyl) benzamide hydrochloride]
29 | 6.3 nM | Cc1ccccc1C(=O)Nc1cc(C)c(S(=O)(=O)N[C@H](C)C2CCNCC2)cc1Cl [Compound 187A, (R)-N-(2-chloro-5-methyl-4-(N-(1-(piperidin-4-yl)ethyl)sulfamoyl)phen-yl)-2-methylbenzamide hydrochloride]
30 | 302 nM | Cc1ccccc1C(=O)Nc1ccc(S(=O)(=O)N[C@H](C)C2CCN(C(=O)OC(C)(C)C)CC2)c(C(F)(F)F)c1 [Compound 188, (R)-tert-butyl 4-(1-(4-(2-methylbenzamido)-2-(trifluoromethyl)phenyl-sulfonamido)ethyl)piper-idine-1-carboxylate]
31 | > 10000 nM | Cc1ccccc1C(=O)Nc1ccc(S(=O)(=O)N[C@H](C)C2CCNCC2)c(C(F)(F)F)c1 [Compound 189A, (R)-2-methyl-N-(4-(N-(1-(piperidin-4-yl)ethyl)sulfamoyl)-3-(trifluoromethyl)phenyl) benzamide hydrochloride]
32 | 58 nM | Cc1ccccc1C(=O)Nc1ccc(S(=O)(=O)N[C@H](C)C2CCNCC2)cc1F [Compound 190A, (R)-N-(2-fluoro-4-(N-(1-(piperidin-4-yl)ethyl)sulfamoyl)phen-yl)-2-methylbenzmaide hydrochloride]
33 | > 10000 nM | Cc1ccccc1C(=O)Nc1ccc(S(=O)(=O)N[C@H](C)C2CCN(C(=O)OC(C)(C)C)CC2)cc1Br [Compound 191, (R)-tert-butyl 4-(1-(3-bromo-4-(2-methylbenzamido)phen-ylsulfonamido)ethyl)pi-peridine-1-carboxylate]
34 | 26 nM | Cc1ccccc1C(=O)Nc1ccc(S(=O)(=O)N[C@H](C)C2CCNCC2)cc1Br [Compound 192A, (R)-N-(2-bromo-4-(N-(1-(piperidin-4-yl)ethyl)sulfamoyl)phen-yl)-2-methylbenzamide hydrochloride]

Row | Compound | IC50
35 | Cc1ccccc1C(=O)Nc1ccc(S(=O)(=O)N[C@H](C)C2CCNCC2)cc1Cl [Compound 165A, (R)-N-(2-chloro-4-(N-(1-(piperidin-4-yl)ethyl)sulfamoyl)phen-yl)-2-methylbenzamide hydrochloride] | 12 nM
